Values quoted from earlier work as cited in patent US20060246153A1, “Herbal compositions for the teatment and prevention of prostate disorders” (priority 2003, published 2006).

Tested on: localised prostate adenocarcinoma
Conditions: 28 mg a day in the diet for three weeks

Which “oxidative damage to the DNA of the post-operative biopsy tissue” value does the source give for `CC(C)=CCC/C(C)=C/C=C/C(C)=C/C=C/C(C)=C/C=C/C=C(C)/C=C/C=C(C)/C=C/C=C(\C)CCC=C(C)C` [lycopene] here?
The value was “greatly reduced”.

What about the “plasma levels of PSA (prostate-specific antigen)” value of the same compound?
The value was “reduced”.
